Publication PMC3045100, “Cell-Penetrating Penta-Peptides (CPP5s): Measurement of Cell Entry and Protein-Transduction Activity” (Pharmaceuticals, 2010)
Residues, ends and D or L forms follow the SMILES beside them. *: point of attachment. 5FAM = O=C1OC2(c3ccc(O)cc3Oc3cc(O)ccc32)c2ccc(C(=O)*)cc21

Key:
[1] = tested on: Jurkat cells; assay: Cell entry in cells lacking caveolin-mediated endocytosis; assay type: cell-based; conditions: cells reported to lack caveolin-mediated endocytotic activity; data not shown
Excerpt: Chinese hamster ovary (CHO) A745 cells lack proteoglycans in the plasma membrane, and this cell line has been used to determine whether proteoglycans are required for CPP entry. […] (Figure 3c and d). The cell-penetrating activity of CPP5s was also examined in Jurkat cells that are reported to lack caveolin-mediated endocytotic activity.

[2] = tested on: DAMI cells; assay: Cell-penetration activity of Fam-labeled CPP5s, cellular fluorescence by FACS and/or microscopy; assay type: cell-based, human; design: key to Cell Penetration, cell entry confirmed by microscopy only: Cell entry of some peptides was confirmed by microscopy only, and these peptides are indicated with a ‘+’ without a percentage value; conditions: peptides Fam-labeled on the N-terminus, 200 μM, 3 h, 37 °C; for Cell Penetration, cell entry confirmed by microscopy only: intracellular fluorescent signal by microscopy, no comparison with KLPVM; for Cell Penetration (%), percentage of the activity of KLPVM: fluorescence intensity of cells by FACS, mean of triplicate samples
Experimental: Figure 1 Cell-penetration activity of CPP5s. a. List of cell-penetrating penta-peptides (CPP5s). […] Peptide sequences are color-coded to show the constant amphipathic amino acid arrangement in each CPP5. Cell-penetration activity was determined by fluorescence intensity of cells (DAMI cells: a human megakaryocytic cancer cell line) incubated with fluorescein (Fam)-labeled peptides (200 μM) for 3 h at 37 °C as described in Experimental Procedures. Fam was labeled on the N-terminus of all peptides examined. Cells were analyzed by FACS and/or microscopy. The activity of each peptide is shown as a percentage of the activity of KLPVM. Each value represents the mean of triplicate samples. Cell entry of some peptides was confirmed by microscopy only, and these peptides are indicated with a ‘+’ without a percentage value. For cytoprotective activity (right column), the information is based on previous studies and the activity was determined by the protection of cells from Bax overexpression and other apoptotic stimuli such as etoposide treatment. b to e. Cell entry of Fam-labeled VPTLK, KLPVM, TAT, and poly-arginine (R8). HeLa cells were incubated with Fam-labeled VPTLK, KLPVM (200 μM), Fam-TAT (10 μM), and Fam-R8 (10 μM) for 1 h at 37 °C. Images are at 20× magnification. f. Comparison of the cytotoxicity of CPP5 and TAT. Primary cultured mouse embryonic fibroblast (MEF) cells were treated with various concentrations of peptides for 24 h as indicated. Then, apoptosis was analyzed as described in Experimental Procedures. Each bar represents the mean of triplicate samples and standard error. TEXT PRINTED IN THE PICTURE: (a) VPMLK: Cell Penetration (%): 97 ± 4.3; Cytoprotection: + | (a) VPTLK: Cell Penetration (%): 61 ± 1.7; Cytoprotection: + | (a) VPALR: Cell Penetration (%): 79 ± 1.5; Cytoprotection: + | (a) VSALK: Cell Penetration (%): 90 ± 3; Cytoprotection: N.D. | (a) PMLKE: Cell Penetration (%): 65 ± 3.7; Cytoprotection: + | (a) VPALK: Cell Penetration (%): 71 ± 2.2; Cytoprotection: + | (a) VSLKK: Cell Penetration (%): +; Cytoprotection: - | (a) VSGKK: Cell Penetration (%): +; Cytoprotection: - | (a) KLPVM: Cell Penetration (%): 100 ± 2.3; Cytoprotection: - | (a) IPMIK: Cell Penetration (%): 47 ± 1.4; Cytoprotection: - | (a) KLGVM: Cell Penetration (%): +; Cytoprotection: - | (a) KLPVT: Cell Penetration (%): +; Cytoprotection: - | (a) VPMIK: Cell Penetration (%): +; Cytoprotection: N.D. | (a) IPALK: Cell Penetration (%): +; Cytoprotection: N.D. | (a) IPMLK: Cell Penetration (%): +; Cytoprotection: N.D. | (a) VPTLQ: Cell Penetration (%): 70 ± 4; Cytoprotection: - | (a) QLPVM: Cell Penetration (%): +; Cytoprotection: - | (a) ELPVM: Cell Penetration (%): +; Cytoprotection: - | (a) VPTLE: Cell Penetration (%): 80 ± 1.9; Cytoprotection: N.D.
CPP5s that were designed based on the Bax-binding domain of Ku70 of several species are named Bax-Inhibiting Peptides (BIPs); they are VPMLK, PMLKE, VPTLK, VPALR, and VPALK. VPMLK and PMLKE were designed from human Ku70, and the same sequence exists in the Ku70 homologues of dog and monkey. VPTLK and VPALR are based on mouse and rat Ku70, respectively. VPALK was designed from cattle Ku70, and the same sequence exists in Ku70 of the African clawed frog. Cytoprotective activities of these BIPs have been previously reported, both in cell culture and animal models. […] The observed variation in cell-entering activity of Fam-labeled-CPP5s is shown in Figure 1a as a percentage of the activity of KLPVM. In all cases, Fam was attached to the N-terminal amino acid. For some CPP5s, cell-penetration activity was confirmed by detection of an intracellular fluorescent signal by microscopy. These latter results are indicated with ‘+’ symbols, and a quantitative comparison with the activity of KLPVM was not performed. […]

[3] = tested on: Primary cultured mouse embryonic fibroblast (MEF) cells; assay: Cytotoxicity (apoptosis, Hoechst nuclear staining) of CPP5 and TAT; assay type: cell-based
Experimental: List of cell-penetrating penta-peptides (CPP5s). […] Peptide sequences are color-coded to show the constant amphipathic amino acid arrangement in each CPP5. […] Fam was labeled on the N-terminus of all peptides examined. Cells were analyzed by FACS and/or microscopy. The activity of each peptide is shown as a percentage of the activity of KLPVM. Each value represents the mean of triplicate samples. Cell entry of some peptides was confirmed by microscopy only, and these peptides are indicated with a '+' without a percentage value. For cytoprotective activity (right column), the information is based on previous studies and the activity was determined by the protection of cells from Bax overexpression and other apoptotic stimuli such as etoposide treatment. b to e. Cell entry of Fam-labeled […], and poly-arginine (R8). […] Comparison of the cytotoxicity of CPP5 and TAT. Primary cultured mouse embryonic fibroblast (MEF) cells were treated with various concentrations of peptides for 24 h as indicated. Then, apoptosis was analyzed as described in Experimental Procedures. Each bar represents the mean of triplicate samples and standard error.

[4] = tested on: HeLa cells; assay: Effect of pinocytosis and endocytosis inhibitors on cell entry of Fam- or Tamra-labeled peptides; assay type: cell-based; conditions: serum-free DMEM, cytochalasin D 10 µM 30 min pre-treatment, then Tamra-labeled peptide 1 h, VPTLK 30 μM, R8 10 μM, FACS, mean of three experiments and standard error
Experimental: HeLa cells were incubated with each inhibitor in serum-free DMEM for 30 min, followed by incubation for 1 h with Fam-labeled CPP5 peptides (30 μM). Then, the cells were extensively washed with Hanks’ Buffered Salt Solution (HBSS) and complete DMEM, prior to the detection of fluorescence by microscopy and FACS. None of amiloride, chlorpromazine, cytochalasin D, Filipin III, nocodazole and methyl-beta-cyclodextrin blocked the entry of Fam-labeled VPTLK and KLPVM into HeLa cells. […] As a control experiment to validate the effectiveness of these inhibitors, FITC-transferrin (for chlorpromazine) and rhodamine-labeled EGF (for cytochalasin D and amiloride) were used. […] To compare the cell-penetrating mechanism between CPP5s and arginine-rich CPPs, the uptake of TAT and R8 was also examined in the presence of these inhibitors.
(§1) Figure 2 Mechanism of cell entry of CPP5s. a and b. […] Cells were incubated with peptides for 1 h and the cellular fluorescence intensity was measured by fluorescence microscopy equipped with image analysis software (for Fam-labeled peptides) or FACS (for Tamra-labeled peptides) as described in Experimental Procedures. […] The results are shown as percentages of the fluorescence intensity of inhibitor-treated cells (the intensity of non-treated cells is designated as 100%). […]

[5] = tested on: HeLa cells; assay: FACS analysis of cell penetration of Fam-VPTLK versus medium concentration; assay type: cell-based; conditions: 3 h, up to 1.6 mM in medium, triplicate samples
Experimental: For examination of the cell-penetrating activity of 5,6-carboxyfluorescein (Fam)-labeled CPP5 peptides (Fam-VPMLK, Fam-VPTLK), DAMI cells and HeLa cells (5.0×10^4 cells/mL) were incubated with different concentrations of Fam-labeled peptides for different time periods. Excess peptides were removed by extensive washing with Hanks’ buffered saline solution (HBSS) as previously reported and cellular entry of Fam-labeled peptides was analyzed using a fluorescence microscope (Nikon; TE200), a confocal scanning laser microscope (Leica; TCS SP2), and a FACS instrument (XL Aria), or a Coulter EPICS® XL-MCR.

[6] = tested on: lysosomes of HeLa cells and DAMI cells; assay: Co-localization of Fam-VPTLK with lysosomes (LysoTracker red); assay type: cell-based; conditions: Fam-VPTLK 50 μM and LysoTracker 100 nM, 1 h, 37 °C, microscopy
Excerpt: Lysosomes are known to contain molecules which have entered the cell through pinocytosis. To determine whether CPP5s use pinocytotic pathways for their cell entry, the localizations of Fam-labeled CPP5s and lysosomes (labeled by LysoTracker® Red) were compared. […] In contrast, FITC-labeled transferrin and LysoTracker-Red co-localized extensively, which is consistent with the understanding that transferrin enters cells through receptor-mediated endocytosis (Figure 2c).
as §1, with “b. […] Microscopic analysis of the co-localization of Fam-VPTLK with lysosome-staining dye (LysoTracker™ red DND-99, L7528 Invitrogen). Hela cells (a) and DAMI cells (b) were incubated with Fam-VPTLK (50 μM) and LysoTracker (100 nM) for 1 h at 37 °C. c. FITC-labeled Transferin (FITC-Transferin) co-localized with lysosome. HeLa cells were incubaled with FITC-transferin (100 nM) and LysoTracker (100 nM) for 1 h at 37 °C. d.” for “b.”

| Compound | Cell Penetration, cell entry confirmed by microscopy only [2] | Cell Penetration (%), percentage of the activity of KLPVM [2] | also measured |
| --- | --- | --- | --- |
| CSCC[C@H](NC(=O)[C@@H](NC(=O)[C@@H]1CCCN1C(=O)[C@H](CC(C)C)NC(=O)[C@H](CCCCN)NC(=O)c1ccc2c(c1)C(=O)OC21c2ccc(O)cc2Oc2cc(O)ccc21)C(C)C)C(=O)O [Fam-KLPVM] (5FAM-KLPVM-OH) |  |  | Entry into Jurkat cells [1]: able to enter Jurkat cells |
| QLPVM [cell-penetrating penta-peptide (CPP5)] | + |  |  |
| IPMLK [cell-penetrating penta-peptide (CPP5)] | + |  |  |
| VPALK |  | 71 ± 2.2% |  |
| PMLKE |  | 65 ± 3.7% |  |
| VPMIK [cell-penetrating penta-peptide (CPP5)] | + |  |  |
| VSLKK [cell-penetrating penta-peptide (CPP5)] | + |  |  |
| KLPVM |  | 100 ± 2.3% | Cytotoxic effect at 1.6 mM in the cell culture medium [3]: did not show significant cytotoxic effects |
| Tamra-VPTLK [Tamra-labeled VPTLK] |  |  | Relative Fluorescence Intensity (No Inhibitor=100%), Cytochalasin D, Tamra-labeled peptides [4]: 57±4% |
| ELPVM [cell-penetrating penta-peptide (CPP5)] | + |  |  |
| KLPVT [cell-penetrating penta-peptide (CPP5)] | + |  |  |
| CC(C)C[C@H](NC(=O)[C@@H](NC(=O)[C@@H]1CCCN1C(=O)[C@@H](NC(=O)c1ccc2c(c1)C(=O)OC21c2ccc(O)cc2Oc2cc(O)ccc21)C(C)C)[C@@H](C)O)C(=O)N[C@@H](CCCCN)C(=O)O [Fam-VPTLK] (5FAM-VPTLK-OH) |  |  | Cell entry of Fam-VPTLK as a function of medium concentration [5]: linear increase up to the maximum concentration examined; Entry into Jurkat cells [1]: able to enter Jurkat cells; Co-localization with lysosomes [6]: partially co-localizes with lysosomes |
| VPALR |  | 79 ± 1.5% |  |
| VPMLK |  | 97 ± 4.3% |  |

Now from value to compound, other results behind:

| Cell Penetration, cell entry confirmed by microscopy only [2] | Cell Penetration (%), percentage of the activity of KLPVM [2] | Compound | also measured |
| --- | --- | --- | --- |
|  | 47 ± 1.4% | IPMIK [cell-penetrating penta-peptide (CPP5)] |  |
|  | 80 ± 1.9% | VPTLE [cell-penetrating penta-peptide (CPP5)] |  |
| + |  | VSGKK [cell-penetrating penta-peptide (CPP5)] |  |
|  | 90 ± 3% | VSALK [cell-penetrating penta-peptide (CPP5)] |  |
| + |  | KLGVM [cell-penetrating penta-peptide (CPP5)] |  |
|  | 70 ± 4% | VPTLQ [cell-penetrating penta-peptide (CPP5)] |  |
| + |  | IPALK [cell-penetrating penta-peptide (CPP5)] |  |
